Values quoted from earlier work as cited in US6080725A, “Immunostimulating and vaccine compositions employing saponin analog adjuvants and uses thereof” (priority 1999, dated 2000).
Read-outs that look alike come from different tables or passages of the source.

Test system: lymphoproliferative test

CC(=O)O[C@@H]1[C@H](O[C@@H]2O[C@@H](CO)[C@H](O)[C@H]2O)[C@@H](O[C@@H]2O[C@@H](C)[C@H](O[C@@H]3OC[C@@H](O)[C@H](O)[C@H]3O)[C@@H](O)[C@H]2O)[C@H](OC(=O)[C@]23CCC(C)(C)C[C@H]2C2=CC[C@@H]4[C@@]5(C)CC[C@H](O[C@@H]6O[C@H](C(=O)O)[C@@H](O)[C@H](O[C@@H]7OC[C@@H](O)[C@H](O)[C@H]7O)[C@H]6O[C@@H]6O[C@H](CO)[C@H](O)[C@H](O)[C@H]6O)[C@@](C)(C=O)[C@H]5CC[C@@]4(C)[C@]2(C)CC3)O[C@@H]1C [squarroside A]
immunomodulating effect, lymphoproliferative test (concentrations in the pg range): stimulant effect
immunomodulating effect, lymphoproliferative test (concentrations in the μg range): suppressive effect
immunomodulating activity, lymphoproliferative test (dose-dependent): immunomodulating activity
